Key:
Format in all cases: cell-based, human
[1] = test system: COLO 205; assay: NCI60 antitumor screening; settings: 10 μM one-dose
[2] = test system: SNB-19; assay: NCI60 antitumor screening; settings: 10 μM one-dose
[3] = test system: UACC-257; assay: NCI60 antitumor screening; settings: 10 μM one-dose
[4] = test system: DU-145; assay: NCI60 antitumor screening; settings: 10 μM one-dose
[5] = test system: SK-MEL-5; assay: NCI60 antitumor screening; settings: 10 μM one-dose
[6] = test system: LOX IMVI; assay: NCI60 antitumor screening; settings: 10 μM one-dose
[7] = test system: SK-OV-3; assay: NCI60 antitumor screening; settings: 10 μM one-dose
[8] = test system: HOP-62; assay: NCI60 antitumor screening; settings: 10 μM one-dose, Table 1
[9] = test system: SF-539; assay: NCI60 antitumor screening; settings: 10 μM one-dose
[10] = test system: CAKI-1; assay: NCI60 antitumor screening; settings: 10 μM one-dose
[11] = test system: M14; assay: NCI60 antitumor screening; settings: 10 μM one-dose
[12] = test system: NCI-H226; assay: NCI60 antitumor screening; settings: 10 μM one-dose
[13] = test system: MDA-MB-468; assay: NCI60 antitumor screening; settings: 10 μM one-dose
[14] = test system: UACC-62; assay: NCI60 antitumor screening; settings: 10 μM one-dose
[15] = test system: HL-60(TB); assay: NCI60 antitumor screening; settings: 10 μM one-dose
[16] = test system: MDA-MB-231/ATCC; assay: NCI60 antitumor screening; settings: 10 μM one-dose
[17] = test system: HCT-15; assay: NCI60 antitumor screening; settings: 10 μM one-dose
[18] = test system: RPMI-8226; assay: NCI60 antitumor screening; settings: 10 μM one-dose
[19] = test system: HS 578T; assay: NCI60 antitumor screening; settings: 10 μM one-dose, Table 1
[20] = test system: OVCAR-4; assay: NCI60 antitumor screening; settings: 10 μM one-dose
[21] = test system: SK-MEL-2; assay: NCI60 antitumor screening; settings: 10 μM one-dose
[22] = test system: HCC-2998; assay: NCI60 antitumor screening; settings: 10 μM one-dose
[23] = test system: HCT-116; assay: NCI60 antitumor screening; settings: 10 μM one-dose
[24] = test system: SF-295; assay: NCI60 antitumor screening; settings: 10 μM one-dose
[25] = test system: UO-31; assay: NCI60 antitumor screening; settings: 10 μM one-dose
[26] = test system: MALME-3M; assay: NCI60 antitumor screening; settings: 10 μM one-dose
[27] = test system: NCI60 cell lines panel; assay: NCI60 antitumor screening, full panel; settings: 10 μM one-dose, mean over NCI60
Procedure, shortened: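 Single-concentration screen at 10 μM across the NCI60 panel (leukaemia, NSCLC, colon, CNS, melanoma, ovarian, renal, prostate, breast). Results are expressed as percent growth inhibition (GI%) of treated lines.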

[28] = test system: SK-MEL-28; assay: NCI60 antitumor screening; settings: 10 μM one-dose
[29] = test system: MOLT-4; assay: NCI60 antitumor screening; settings: 10 μM one-dose
[30] = test system: SR; assay: NCI60 antitumor screening; settings: 10 μM one-dose, Table 1
[31] = test system: SNB-75; assay: NCI60 antitumor screening; settings: 10 μM one-dose, Table 1
[32] = test system: ACHN; assay: NCI60 antitumor screening; settings: 10 μM one-dose
[33] = test system: NCI-H522; assay: NCI60 antitumor screening; settings: 10 μM one-dose
[34] = test system: BT-549; assay: NCI60 antitumor screening; settings: 10 μM one-dose
[35] = test system: SN12C; assay: NCI60 antitumor screening; settings: 10 μM one-dose
[36] = test system: SF-268; assay: NCI60 antitumor screening; settings: 10 μM one-dose
[37] = test system: CCRF-CEM; assay: NCI60 antitumor screening; settings: 10 μM one-dose
[38] = test system: EKVX; assay: NCI60 antitumor screening; settings: 10 μM one-dose
[39] = test system: HOP-92; assay: NCI60 antitumor screening; settings: 10 μM one-dose
[40] = test system: HT29; assay: NCI60 antitumor screening; settings: 10 μM one-dose
[41] = test system: OVCAR-5; assay: NCI60 antitumor screening; settings: 10 μM one-dose
[42] = test system: U251; assay: NCI60 antitumor screening; settings: 10 μM one-dose
[43] = test system: 786–0; assay: NCI60 antitumor screening; settings: 10 μM one-dose, Table 1
[44] = test system: KM12; assay: NCI60 antitumor screening; settings: 10 μM one-dose
[45] = test system: OVCAR-8; assay: NCI60 antitumor screening; settings: 10 μM one-dose
[46] = test system: MCF7; assay: NCI60 antitumor screening; settings: 10 μM one-dose
[47] = test system: NCI/ADR-RES; assay: NCI60 antitumor screening; settings: 10 μM one-dose
[48] = test system: NCI-H322M; assay: NCI60 antitumor screening; settings: 10 μM one-dose
[49] = test system: NCI-H23; assay: NCI60 antitumor screening; settings: 10 μM one-dose
[50] = test system: K-562; assay: NCI60 antitumor screening; settings: 10 μM one-dose
[51] = test system: TK-10; assay: NCI60 antitumor screening; settings: 10 μM one-dose
[52] = test system: A498; assay: NCI60 antitumor screening; settings: 10 μM one-dose
[53] = test system: MDA-MB-435; assay: NCI60 antitumor screening; settings: 10 μM one-dose
[54] = test system: PC-3; assay: NCI60 antitumor screening; settings: 10 μM one-dose
[55] = test system: RXF 393; assay: NCI60 antitumor screening; settings: 10 μM one-dose
[56] = test system: T-47D; assay: NCI60 antitumor screening; settings: 10 μM one-dose
[57] = test system: SW-620; assay: NCI60 antitumor screening; settings: 10 μM one-dose
[58] = test system: NCI-H460; assay: NCI60 antitumor screening; settings: 10 μM one-dose
[59] = test system: IGROV1; assay: NCI60 antitumor screening; settings: 10 μM one-dose
[60] = test system: A549/ATCC; assay: NCI60 antitumor screening; settings: 10 μM one-dose
[61] = test system: OVCAR-3; assay: NCI60 antitumor screening; settings: 10 μM one-dose

N#Cc1c(-c2ccc(F)cc2)nc(SCc2ccc(F)cc2)nc1N1CCOCC1 [4b, 2-((4-Fluorobenzyl)thio)-4-(4-fluorophenyl)-6-morpholinopyrimidine-5-carbonitrile]
GI% [1]: — (GI% < 10)
GI% [2]: 56.32%
GI% [3]: 22.89%
GI% [4]: 22.16%
GI% [5]: 25.68%
GI% [6]: 23.57%
GI% [7]: 60.37%
GI% [8]: 75.65%
GI% [9]: 50.95%
GI% ([9]; Table 1): — (GI value > 70%)
GI% [10]: 69.32%
GI% [11]: — (GI% < 10)
GI% [12]: 51.64%
GI% ([12]; Table 1): — (GI value > 70%)
GI% [13]: 37.89%
GI% [14]: 30.66%
GI% [15]: 15.01%
GI% [16]: 49.52%
GI% [17]: 20.05%
GI% [18]: — (GI% < 10)
GI% [19]: 74.34%
GI% [20]: 39.53%
GI% ([20]; Table 1): — (GI value > 70%)
GI% [21]: 21.29%
GI% [22]: 12.64%
GI% [23]: 33.96%
GI% [24]: 63.10%
GI% [25]: 13.97%
GI% [26]: 41.38%
Mean GI% [27]: 34.42%
GI% [28]: 14.16%
GI% [29]: — (GI% < 10)
GI% [30]: — (GI value > 70%)
GI% [31]: 82.51%
GI% [32]: 53.35%
GI% [33]: 45.02%
GI% [34]: 35.72%
GI% [35]: 27.12%
GI% [36]: 56.58%
GI% [37]: 12.89%
GI% [38]: 39.92%
GI% [39]: 65.67%
GI% [40]: — (GI% < 10)
GI% [41]: 16.89%
GI% [42]: 52.85%
GI% [43]: 75.34%
GI% [44]: 12.78%
GI% [45]: 45.16%
GI% [46]: 36.26%
GI% [47]: 36.47%
GI% [48]: 21.55%
GI% [49]: 28.19%
GI% [50]: 16.20%
GI% ([50]; Table 1): — (GI value > 70%)
GI% [51]: 22.42%
GI% [52]: 28.08%
GI% [53]: — (GI% < 10)
GI% [54]: 28.37%
GI% [55]: 58.43%
GI% ([55]; Table 1): — (GI value > 70%)
GI% [56]: 26.75%
GI% [57]: 14.48%
GI% [58]: 26.13%
GI% [59]: — (GI% < 10)
GI% [60]: 31.03%
GI% [61]: 24.80%

— paper PMC10620772, “Design, synthesis, and biological evaluation of new pyrimidine-5-carbonitrile derivatives as novel anti-cancer, dual EGFR^WT/COX-2 inhibitors with docking studies” (RSC Advances, 2023)
